Publication PMC12590467, “Accessory Subunit Regulates Thiyl Radical Formation in Benzylsuccinate Synthase” (Biochemistry, 2025)

Target: T1, BSSαβγ (benzylsuccinate synthase) (Thauera aromatica, UniProt O68395)
T1 construct: gene tutD; BSSαγ mixed 1:2 with BSSβ; (αβγ)2; α 865, β 81, γ 60 residues; resolved α 9-865, β 13-81, γ 5-59; catalytic Cys493; with Benzylsuccinate synthase beta subunit; Benzylsuccinate synthase gamma subunit
Assay: X-ray crystal structure, […] Å
Type: binding
Conditions: active site; toluene not added, modelled from glovebox atmosphere; also turned over with fumarate; pH 8.5

T1 sequence (O68395 1-864): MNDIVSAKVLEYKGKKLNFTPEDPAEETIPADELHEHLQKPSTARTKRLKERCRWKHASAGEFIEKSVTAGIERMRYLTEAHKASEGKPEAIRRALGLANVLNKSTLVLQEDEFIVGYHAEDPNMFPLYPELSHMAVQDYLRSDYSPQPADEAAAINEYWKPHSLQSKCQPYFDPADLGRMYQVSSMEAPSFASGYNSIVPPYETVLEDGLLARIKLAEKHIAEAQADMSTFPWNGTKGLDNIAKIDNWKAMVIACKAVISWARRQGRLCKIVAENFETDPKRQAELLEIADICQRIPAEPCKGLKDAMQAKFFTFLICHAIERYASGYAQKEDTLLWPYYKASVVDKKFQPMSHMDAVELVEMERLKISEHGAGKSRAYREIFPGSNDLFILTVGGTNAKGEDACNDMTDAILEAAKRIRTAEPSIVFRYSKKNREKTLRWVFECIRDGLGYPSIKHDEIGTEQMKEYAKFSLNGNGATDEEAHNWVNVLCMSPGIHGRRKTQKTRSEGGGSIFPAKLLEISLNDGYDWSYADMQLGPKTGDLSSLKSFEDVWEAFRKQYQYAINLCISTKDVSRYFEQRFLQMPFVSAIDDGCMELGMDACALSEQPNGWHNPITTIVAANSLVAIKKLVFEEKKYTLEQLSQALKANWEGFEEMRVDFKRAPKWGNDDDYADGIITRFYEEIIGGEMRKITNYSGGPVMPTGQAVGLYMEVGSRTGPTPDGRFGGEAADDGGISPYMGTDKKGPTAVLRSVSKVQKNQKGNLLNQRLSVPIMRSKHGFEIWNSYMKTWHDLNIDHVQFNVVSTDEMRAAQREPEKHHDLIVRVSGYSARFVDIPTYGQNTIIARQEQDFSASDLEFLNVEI
T1 sequence (O68396 1-81 partner): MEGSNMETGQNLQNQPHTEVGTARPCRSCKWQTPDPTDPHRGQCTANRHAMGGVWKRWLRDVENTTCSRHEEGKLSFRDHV
T1 sequence (O68394 1-60 partner): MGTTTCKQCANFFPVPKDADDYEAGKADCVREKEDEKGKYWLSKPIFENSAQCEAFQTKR

For `Cc1ccccc1` [toluene], the “X-ray crystal structure, 2.9 Å” value was “In the active site, both toluene and fumarate were modeled and align well”.
